Assay results taken from patent US6461997B1, “Triazole sulfones having herbicidal activity” (Monsanto Technology LLC, priority 1999, dated 2002).

Tests used:
[1] = tested on: SETVI (green foxtail); experiment: Post-emergence herbicidal activity, cool season; format: in vivo, Setaria viridis; details: abraded plants sprayed at 300, 100, 30 and 10 g/ha; about 14 days after treatment
Experimental: (§1) In another set of tests, the post-emergence activity of compounds of this invention was evaluated on the cool season species listed above. The following procedure was used.
(§2) A pre-prepared topsoil mixture (described above) was placed in a pot and compacted to a depth of 1.0 to 1.25 cm from the top of the pot. Seeds of each of several monocotyledonous and dicotyledonous annual plant species were placed on top of the soil. The seeds were covered with a mixture of 50% topsoil and 50% Rediearth™ in sufficient quantity to level-fill the pots. The pots were then placed on a greenhouse bench and subirrigated as needed.
(§3) When plants growing from the seeds had emerged and reached a suitable growth stage for post-emergence treatment, typically 9 to 14 days after planting, above-ground parts of the plants were subjected to a pre-treatment involving abrasion to create greater opportunity for foliar uptake of subsequently applied compounds. Abrasion was performed using garnet 200w particles applied with a Sears Craftsman hand-held sandblaster operated at approximately 850 kPa (50 psig) pressure.
(§4) A known amount of each test compound dissolved or suspended in an appropriate organic solvent was diluted with a 50:50 mix of acetone and water and applied to the plants by spraying with a standard spray nozzle in a spray volume of […] at a spray pressure of 511 kPa (30 psig). Only the compounds of Examples 1, 8-15 and 17-22 were included in post-emergence tests. Application rates for these compounds were 300, 100, 30 and 10 g/ha. Control plants were abraded but not sprayed.
(§5) After treatment the plants were placed in a greenhouse with an 18/13° C. day/night temperature regime and were subsequently watered as needed for growth. Approximately 14 days after treatment, the plants were observed and herbicidal efficacy recorded as percent inhibition by comparison with control plants. GR80 values were assigned for each compound as described above for the pre-emergence tests.

[2] = tested on: LOLMG (annual ryegrass); experiment: Post-emergence herbicidal activity, cool season; format: in vivo, Lolium multiflorum; details: abraded plants sprayed at 300, 100, 30 and 10 g/ha; about 14 days after treatment
Experimental: as §1, §2, §3, §4, §5

[3] = tested on: VERPE (creeping speedwell); experiment: Pre-emergence herbicidal activity, cool season; format: in vivo, Veronica persicaria; details: lowest tested rate with 80% or greater inhibition; rates 300, 100, 30, 10 g/ha; about 14 days
In short: (§6)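 GR80 values derive from percent inhibition relative to untreated plants, read roughly 14 days after sowing and pre-emergence soil-surface treatment (compound in 50:50 acetone/water; rates typically 10, 30, 100, 300 g/ha). Warm-season weeds grew at 30/21° C day/night, cool-season ones at 18/13° C; an asterisk marks activity without reaching 80% at the highest rate.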

[4] = tested on: PANMI (wild proso millet); experiment: Pre-emergence herbicidal activity, warm season; format: in vivo, Panicum miliaceum; details: GR80 = lowest tested rate (300, 100, 30, 10 g/ha) with 80% or greater inhibition; approx. 14 days after treating; 30/21° C.
In short: (§7)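 Activity is expressed as the rate giving 80% inhibition, with 300, 100, 30 and 10 g/ha typically tested. An asterisk marks activity short of 80% at the top rate. Warm-season grasses were held at 30/21 °C; cool-season blackgrass and wild buckwheat at 18/13 °C; scoring at about 14 days.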

[5] = tested on: LAMPU (purple deadnettle); experiment: Pre-emergence herbicidal activity, cool season; format: in vivo, Lamium purpureum; details: lowest tested rate with 80% or greater inhibition; rates 300, 100, 30, 10 g/ha; about 14 days
In short: as §6

[6] = tested on: AGRRE (quackgrass (seedling)); experiment: Post-emergence herbicidal activity, cool season; format: in vivo, Elymus repens; details: abraded plants sprayed at 300, 100, 30 and 10 g/ha; about 14 days after treatment
Experimental: as §1, §2, §3, §4, §5

[7] = tested on: SASKR (russian thistle); experiment: Pre-emergence herbicidal activity, cool season; format: in vivo, Salsola kali; details: lowest tested rate with 80% or greater inhibition; rates 300, 100, 30, 10 g/ha; about 14 days
In short: as §6

[8] = tested on: GALAP (catchweed bedstraw); experiment: Pre-emergence herbicidal activity, cool season; format: in vivo, Galium aparine; details: lowest tested rate with 80% or greater inhibition; rates 300, 100, 30, 10 g/ha; about 14 days
In short: as §6

[9] = tested on: AGSST (creeping bentgrass); experiment: Post-emergence herbicidal activity, cool season; format: in vivo, Agrostis stolonifera; details: abraded plants sprayed at 300, 100, 30 and 10 g/ha; about 14 days after treatment
Experimental: as §1, §2, §3, §4, §5

[10] = tested on: AEGCY (jointed goatgrass); experiment: Post-emergence herbicidal activity, cool season; format: in vivo, Aegilops cylindrica; details: abraded plants sprayed at 300, 100, 30 and 10 g/ha; about 14 days after treatment
Experimental: as §1, §2, §3, §4, §5

[11] = tested on: AVEFA (wild oat); experiment: Post-emergence herbicidal activity, cool season; format: in vivo, Avena fatua; details: abraded plants sprayed at 300, 100, 30 and 10 g/ha; about 14 days after treatment
Experimental: as §1, §2, §3, §4, §5

[12] = tested on: BROTE (downy brome); experiment: Post-emergence herbicidal activity, cool season; format: in vivo, Bromus tectorum; details: abraded plants sprayed at 300, 100, 30 and 10 g/ha; about 14 days after treatment
Experimental: as §1, §2, §3, §4, §5

[13] = tested on: POLCO (wild buckwheat); experiment: Pre-emergence herbicidal activity, cool season; format: in vivo, Polygonum convolvulus; details: lowest tested rate with 80% or greater inhibition; rates 300, 100, 30, 10 g/ha; about 14 days
In short: as §7

[14] = tested on: SINAR (wild mustard); experiment: Pre-emergence herbicidal activity, cool season; format: in vivo, Sinapis arvensis; details: lowest tested rate with 80% or greater inhibition; rates 300, 100, 30, 10 g/ha; about 14 days
In short: as §6

[15] = tested on: STEME (common chickweed); experiment: Pre-emergence herbicidal activity, cool season; format: in vivo, Stellaria media; details: lowest tested rate with 80% or greater inhibition; rates 300, 100, 30, 10 g/ha; about 14 days
In short: as §6

[16] = tested on: ALOMY (blackgrass); experiment: Post-emergence herbicidal activity, cool season; format: in vivo, Alopecurus myosuroides; details: abraded plants sprayed at 300, 100, 30 and 10 g/ha; about 14 days after treatment
Experimental: as §1, §2, §3, §4, §5

[17] = tested on: SORVU (shattercane); experiment: Pre-emergence herbicidal activity, warm season; format: in vivo, Sorghum vulgare; details: GR80 = lowest tested rate (300, 100, 30, 10 g/ha) with 80% or greater inhibition; approx. 14 days after treating; 30/21° C.
In short: as §7

[18] = tested on: CHEAL (common lambsquarters); experiment: Pre-emergence herbicidal activity, warm season; format: in vivo, Chenopodium album; details: GR80 = lowest tested rate (300, 100, 30, 10 g/ha) with 80% or greater inhibition; approx. 14 days after treating; 30/21° C.
In short: as §6

[19] = tested on: PANDI (fall panicum); experiment: Pre-emergence herbicidal activity, warm season; format: in vivo, Panicum dichotomiflorum; details: GR80 = lowest tested rate (300, 100, 30, 10 g/ha) with 80% or greater inhibition; approx. 14 days after treating; 30/21° C.
In short: as §7

[20] = tested on: AGSST (creeping bentgrass); experiment: Pre-emergence herbicidal activity, cool season; format: in vivo, Agrostis stolonifera; details: GR80 = lowest tested rate (300, 100, 30, 10 g/ha) with 80% or greater inhibition; approx. 14 days after treating; 18/13° C.
In short: as §6

[21] = tested on: ALOMY (blackgrass); experiment: Pre-emergence herbicidal activity, cool season; format: in vivo, Alopecurus myosuroides; details: GR80 = lowest tested rate (300, 100, 30, 10 g/ha) with 80% or greater inhibition; approx. 14 days after treating; 18/13° C.
In short: as §7

[22] = tested on: LOLMG (annual ryegrass); experiment: Pre-emergence herbicidal activity, cool season; format: in vivo, Lolium multiflorum; details: GR80 = lowest tested rate (300, 100, 30, 10 g/ha) with 80% or greater inhibition; approx. 14 days after treating; 18/13° C.
In short: as §6

[23] = tested on: AGRRE (quackgrass (seedling)); experiment: Pre-emergence herbicidal activity, cool season; format: in vivo, Elymus repens; details: GR80 = lowest tested rate (300, 100, 30, 10 g/ha) with 80% or greater inhibition; approx. 14 days after treating; 18/13° C.
Experimental: (§8) Tables 5 to 8 summarize results of tests conducted as described below to determine the pre-emergence herbicidal activity, in the form of a GR80 value, of illustrative compounds of this invention. […] Compounds of the invention were typically applied at rates of 300, 100, 30, and 10 g/ha. Where herbicidal activity was evident but 80% inhibition was not achieved at the highest rate tested, an asterisk (*) is shown in the following tables.
(§9) The pre-emergence tests were conducted by the following procedure. Topsoil was sieved to pass through a 1.27 cm screen. Fertilizer was added to the topsoil and the mixture was then sterilized by heating. The topsoil mixture was placed in a pot and compacted to a depth of 1.0 to 1.25 cm from the top of the pot. Seeds of each of several monocotyledonous and dicotyledonous annual plant species were placed on top of the soil. Additional soil was subsequently placed over the seeds to level-fill the pot. A known amount of each test compound dissolved or suspended in an appropriate organic solvent was diluted with a 50:50 mix of acetone and water and applied to the surface of the soil. After treatment the plants were placed in a greenhouse where they received 0.64 cm of overhead irrigation. All subsequent watering consisted of a light overhead mist and/or subirrigation as needed for germination and growth. Tables 5 and 6 below relate to warm season plant species which were placed after pre-emergence treatment in a greenhouse with a 30/21° C. day/night temperature regime. Tables 7 and 8 below relates to cool season plant species placed after pre-emergence treatment in a greenhouse or growth chamber with an 18/13° C. day/night temperature regime.
(§10) Approximately 14 days after planting and treating, the plants were observed and herbicidal efficacy recorded as percent inhibition by comparison with untreated plants.
(§11) The plant species usually regarded as weeds which were utilized in the tests are identified in the tables below according to the following legend, in which “d” indicates a dicotyledonous species and “m” a monocotyledonous species. All monocotyledonous species included in the tests herein are grasses.

[24] = tested on: SOLNI (black nightshade); experiment: Pre-emergence herbicidal activity, warm season; format: in vivo, Solanum nigrum; details: GR80 = lowest tested rate (300, 100, 30, 10 g/ha) with 80% or greater inhibition; approx. 14 days after treating; 30/21° C.
In short: as §6

[25] = tested on: SETFA (giant foxtail); experiment: Pre-emergence herbicidal activity, warm season; format: in vivo, Setaria faberi; details: GR80 = lowest tested rate (300, 100, 30, 10 g/ha) with 80% or greater inhibition; approx. 14 days after treating; 30/21° C.
In short: as §7

[26] = tested on: ECHCG (barnyardgrass); experiment: Pre-emergence herbicidal activity, warm season; format: in vivo, Echinochloa crus-galli; details: GR80 = lowest tested rate (300, 100, 30, 10 g/ha) with 80% or greater inhibition; approx. 14 days after treating; 30/21° C.
In short: as §7

[27] = tested on: BROTE (downy brome); experiment: Pre-emergence herbicidal activity, cool season; format: in vivo, Bromus tectorum; details: GR80 = lowest tested rate (300, 100, 30, 10 g/ha) with 80% or greater inhibition; approx. 14 days after treating; 18/13° C.
Experimental: as §8, §9, §10, §11

[28] = tested on: SETVI (green foxtail); experiment: Pre-emergence herbicidal activity, cool season; format: in vivo, Setaria viridis; details: GR80 = lowest tested rate (300, 100, 30, 10 g/ha) with 80% or greater inhibition; approx. 14 days after treating; 18/13° C.
In short: as §6

SMILES | Post-emergence activity GR80, SETVI [1] | Post-emergence activity GR80, LOLMG [2] | Pre-emergence activity GR80, VERPE [3] | Pre-emergence activity (GR80) PANMI [4] | Pre-emergence activity GR80, LAMPU [5] | Post-emergence activity GR80, AGRRE [6] | Pre-emergence activity GR80, SASKR [7] | Pre-emergence activity GR80, GALAP [8] | Post-emergence activity GR80, AGSST [9] | Post-emergence activity GR80, AEGCY [10] | Post-emergence activity GR80, AVEFA [11] | Post-emergence activity GR80, BROTE [12] | Pre-emergence activity GR80, POLCO [13] | Pre-emergence activity GR80, SINAR [14] | Pre-emergence activity GR80, STEME [15] | Post-emergence activity GR80, ALOMY [16] | Pre-emergence activity (GR80) SORVU [17] | Pre-emergence activity (GR80) PANDI [19] | Pre-emergence activity (GR80) AGSST [20] | further results
CCN(CC)C(=O)n1cnc(S(=O)(=O)C(F)(F)SCCOC(C)=O)n1 [Example 21] | [empty] | [empty] | 300 g/ha | * (activity observed, at least at highest rate, but <80% inhibition) | 300 g/ha | [empty] | [empty] | 300 g/ha | [empty] | [empty] | [empty] | [empty] | [empty] | [empty] | [empty] | [empty] | * (activity observed, at least at highest rate, but <80% inhibition) |  |  | 
CCN(CC)C(=O)n1cnc(S(=O)(=O)C(F)(F)SCCOC(=O)c2ccccc2)n1 [Example 22] | [empty] | [empty] | 300 g/ha |  | [empty] | [empty] | [empty] | [empty] | [empty] | [empty] | [empty] | [empty] | [empty] | [empty] | [empty] | [empty] | * (activity observed, at least at highest rate, but <80% inhibition) | 300 g/ha | 300 g/ha | Pre-emergence activity (GR80) CHEAL [18]: 300 g/ha
CCSC(F)(F)S(=O)(=O)c1ncn(C(=O)N(C)CCOC)n1 [Example 52] |  |  | 30 g/ha | 100 g/ha | [empty] |  | 100 g/ha | [empty] |  |  |  |  | [empty] | 300 g/ha | [empty] |  |  | 30 g/ha | 300 g/ha | Pre-emergence activity (GR80) ALOMY [21]: 300 g/ha; Pre-emergence activity (GR80) LOLMG [22]: 300 g/ha; Pre-emergence activity (GR80) AGRRE [23]: 100 g/ha; Pre-emergence activity (GR80) SOLNI [24]: 300 g/ha; Pre-emergence activity (GR80) SETFA [25]: 300 g/ha; Pre-emergence activity (GR80) ECHCG [26]: 300 g/ha; Pre-emergence activity (GR80) BROTE [27]: 300 g/ha; Pre-emergence activity (GR80) SETVI [28]: 300 g/ha
